Data as given in patent US20230167406A1, “COMPOSITIONS AND METHODS OF PROMOTING MYELINATION” (The Children's Medical Center Corporation, priority 2020, published 2023).
Entries after “also recorded” stand apart in the source; their conditions may differ. Where a name gives a salt, the structure may show the parent alone.

How the values were obtained:
[1] = test system: proliferating OPCs in injured optic nerves; assay: In vivo compound screening for OPC differentiation (BrdU+/CC1+ cells) after optic nerve crush; parameters: species or system mouse; details: wild type C57BL/6 mice; for number of BrdU+ and CC1+ double positive cells (OPC differentiation) in injured optic nerves: compound once daily for 4 weeks from day 1 post optic nerve crush, BrdU daily days 4-10; for pro-differentiation effect compared with the other screened compounds: 4 week treatment after optic nerve crush
[2] = test system: regenerated axons in injured optic nerves; assay: Electron microscopy of myelination of regenerated axons in injured optic nerves; assay type: in vivo, mouse; details: 4 weeks after injury; for regenerated axons that became myelinated: Montelukast dpi1-28 and/or PLX3397 dpi15-28
Protocol: To do this, AAVs expressing osteopontin/IGF1/CNTF were injected into the vitreous bodies of PDGFRα-CreER:iRTM mice to activate the intrinsic regenerative ability of RGCs and optic nerve injury was performed in 2 weeks. These mice were then treated with Montelukast (for 4 weeks from dpi1 to dpi28) and/or PLX3397 (for two weeks during dpi 15-28).
Mice were perfused with 4% paraformaldehyde with 2.5% glutaraldehyde in 0.1 M sodium cacodylate buffer, pH 7.2. Optic nerves were dissected and fixed in the same fixative solution overnight. Samples were then processed by the Harvard EM core based on the following procedure: nerves were rinsed in PBS, postfixed in 1% OsO4 in PBS for 1 h, dehydrated in a graded ethanol series, infiltrated with propylene oxide, and embedded in Epon. Semithin sections were stained with toluidine blue, and ultrathin sections were stained with lead citrate. Ultrathin sections were taken under JEOL 1200EX-80 kV electron microscope. The number of myelinated axons per nerve was analyzed in ultrathin sections at magnification 3,000× to 20,000×.

[3] = test system: OPCs and their progenies in injured optic nerves; assay: OPC lineage tracing (CC1/Oligo1 staining of RTM+ cells) in PDGFRα-CreER/iRTM mice after optic nerve crush; assay type: in vivo, mouse
Source text: To trace the progenies of OPCs, a different reporter mouse line was utilized, namely PDGFRα-CreER (Kang et al., Neuron 68, 668-681, 2010) crossed with Rosa26-STOP-Tomato mice, or PDGFRα-CreER/iRTM mice (Arenkiel et al., 2011). Upon tamoxifen administration, Cre expression is induced in PDGFRα^+ OPCs, leading to RTM expression not only in these OPCs but also their differentiated progenies. To monitor their differentiation, two well-documented markers were used, namely CC1 and Oligo1. CC1 is a marker for all differentiated cells from OPCs. The translocation of Oligo1 from the nucleus to the cytoplasm has been implicated as a hallmark of late differentiation into myelinating oligodendrocytes. Therefore, with these immunohistochemistry assessments, these cells could be separated into three stages: un-differentiated OPCs (CC1^− and nuclear Oligo1), early differentiated OPCs (CC1+ and nuclear Oligo1) and mature oligodendrocytes (CC1^+ and cytoplasmic Oligo1) (FIG. 111).
Immediately prior to optic nerve crush, tamoxifen was injected into PDGFRα-CreER/iRTM mice in order to label pre-existing OPCs (Young et al., Neuron 77, 873-885, 2013). Then, the fate of labeled OPCs was examined by immunohistochemistry with anti-CC1 and anti-Oligo1 at 4 weeks after injury (FIG. 1I).
As the majority of OPC proliferation occurs in the first week after injury (FIG. 1), it was hypothesized that a delayed PLX3397 treatment at 2-4 weeks after injury could bypass their inhibition on proliferation, permitting assessment of its effects on OPC differentiation. To do this, a separate experiment was performed in which PLX3397 was administered from 2 to 4 weeks after injury in PDGFRα-CreER:iRTM mice as used in FIGS. 1G-1M, 3L.
For PDGFRα-CreER mice, Tamoxifen (100 mg/kg, p.o.) was administered for 5 days right before optic nerve crush. […] Pexidartinib (PLX 3397) was mixed in food chow at 290 mg/kg by LabDiet laboratory animal nutrition.

[4] = test system: activated microglia in injured optic nerves; assay: Microglia depletion in injured optic nerves (CD68 immunoreactivity); assay type: in vivo, mouse; details: systemic application (food chow)
Source text: FIG. 3G comprises representative images of optic nerves, from adult mice 2 weeks after unilateral optic nerve crush injury and with or without PLX3397 treatment, stained with antibodies against CD68. Scale bar: 40 μm.
FIG. 3H is a graph quantifying the CD68 immunoreactivity signal. […] mice per group. Scale bar: 40 μm. *, **, *** p<0.05, 0.01, 0.001, respectively.
(§1) Thus, it appears that microglia activation is required for injury-induced OPC proliferation.
For PDGFRα-CreER mice, Tamoxifen (100 mg/kg, p.o.) was administered for 5 days right before optic nerve crush. For OPC proliferation assays, BrdU (100 mg/kg, i.p.) was injected at 3 hours before sample collection. […]
(§2) Cryosections (12-μm thick) were permeabilized and blocked in blocking buffer (0.5% Triton X-100 and 5% normal goat serum in PBS) for 1 h at room temperature and overlaid with primary antibodies overnight at 4° C. […] For each biological sample, 3-5 sections of each optic nerve were imaged under 10× or 20×objectives for quantification. Positive cell numbers were then quantified manually using the Plugins/Analyze/Cell Counter function in ImageJ software. For fluorescent intensity analysis, the images were first converted to 8-bit depth in ImageJ software and then, the mean intensity value was calculated by the build-in function: Analyze/Measure.

[5] = test system: OPCs in injured optic nerves; assay: OPC proliferation by BrdU/GFP/Olig2 labeling in PDGFRα-H2B-GFP mice; assay type: in vivo, mouse; details: PLX3397 from 7 days before crush, examined 14 days after injury
Protocol: FIG. 3I is a schematic of experiments to assess OPC proliferation with the treatment of PLX3397 (PLX) or its vehicle control (Vec) in PDGFRα-H2B-GFP mice. […]
as §1
For PDGFRα-CreER mice, Tamoxifen (100 mg/kg, p.o.) was administered for 5 days right before optic nerve crush. For OPC proliferation assays, BrdU (100 mg/kg, i.p.) was injected at 3 hours before sample collection. For drug screening assays, BrdU was injected daily from day 4 to day 10 post optic nerve crush. Each compound or the corresponding Vehicle was administered once daily for 4 weeks started from day 1 post optic nerve crush (Table 2). […]
as §2

[6] = test system: OPCs distal to the optic nerve injury; assay: TNFα inhibitor treatment after optic nerve injury (BrdU/CC1/Olig2 staining, lineage reporter mice); assay type: in vivo, mouse
Source text: The morphology is very distinct from other treatments, such as GPR17 antagonist treatment (FIG. 5E).

[7] = PDGFRα-CreER:iRTM mice, delayed treatment from 2 to 4 weeks after injury
[8] = PDGFRα-CreER/iRTM mice, Montelukast treatment for 4 weeks

Q: With `CN1C2CCC1CC(OC(c1ccccc1)c1ccccc1)C2` (stereo not shown) [benztropine mesylate, Benztropine mesylate] as the compound, how does the “number of BrdU+ and CC1+ double positive cells (OPC differentiation) in injured optic nerves” value [1] read?
A: significantly increased

Q: And the “number of BrdU+ and CC1+ double positive cells (OPC differentiation) in injured optic nerves” value ([1]; listed as benztropine)?
A: significantly increased OPC differentiation

Q: With `FC(F)(F)c1ccc(CNc2ccc(Cc3c[nH]c4ncc(Cl)cc34)cn2)cn1` [PLX3397, Pexidartinib] as the compound, how does the “regenerated axons that became myelinated” value [2] read?
A: about 20%

Q: What about the “CC1+ cells” value [3, 7] of the same compound?
A: increased

Q: What about the “proportion of CC1+RTM+ cells expressing cytoplasmic Oligo1” value [3, 7] of the same compound?
A: 78%

Q: And the “depletion of microglia in vivo (CD68)” value [4]?
A: depleted; also recorded: specifically deplete microglia

Q: And the “total numbers of OPCs” value [5]?
A: profoundly reduced

Q: With `O=C(O)CCC(=O)O.O=C(O[C@H]1CN2CCC1CC2)N1CCc2ccccc2[C@@H]1c1ccccc1` [Solifenacin, Solifenacin succinate] as the compound, how does the “number of BrdU+ and CC1+ double positive cells (OPC differentiation) in injured optic nerves” value [1] read?
A: significantly increased

Q: What about the “number of BrdU+ and CC1+ double positive cells (OPC differentiation) in injured optic nerves” value ([1]; listed as solifenacin) of the same compound?
A: significantly increased OPC differentiation

Q: `C=C(c1ccc(C(=O)O)cc1)c1cc2c(cc1C)C(C)(C)CCC2(C)C` [Bexarotene] was tested. Which “number of BrdU+ and CC1+ double positive cells (OPC differentiation) in injured optic nerves” value [1] did it give?
A: increased CC1^+ cells, albeit the increase did not reach statistical differences

Q: `CC(C)(O)c1ccccc1CC[C@@H](SCC1(CC(=O)O)CC1)c1cccc(/C=C/c2ccc3ccc(Cl)cc3n2)c1` [Montelukast] was tested. Which “thickness of myelin structures” value [2] did it give?
A: much thinner than those after PLX treatment

Q: And the “regenerated axons that became myelinated” value [2]?
A: about 20%

Q: What about the “proportion of CC1+RTM+ cells with nuclear, but not cytoplasmic, Oligo1 immunoreactivity” value [3, 8] of the same compound?
A: 77%

Q: What about the “total RTM+ cell numbers” value [3, 8] of the same compound?
A: increased

Q: What about the “proportion of RFP+ (RTM+) cells that became CC1+” value ([3]; PDGFRα-CreER/iRTM mice, Montelukast treatment for 4 weeks after optic nerve injury, 12% in vehicle-treated mice) of the same compound?
A: 64%

Q: And the “pro-differentiation effect compared with the other screened compounds” value [1]?
A: strongest effect

Q: And the “pro-differentiation effect compared with the other screened compounds” value ([1]; listed as montelukast)?
A: strongest

Q: What about the “number of BrdU+ and CC1+ double positive cells (OPC differentiation) in injured optic nerves” value [1] of the same compound?
A: significantly increased

Q: How did the “number of BrdU+ and CC1+ double positive cells (OPC differentiation) in injured optic nerves” value [1] turn out when `CN1CCC[C@@H]1CCO[C@](C)(c1ccccc1)c1ccc(Cl)cc1.O=C(O)/C=C/C(=O)O` [clemastine, Clemastine fumarate] was run?
A: increased CC1^+ cells, albeit the increase did not reach statistical differences

Q: How did the “number of BrdU+ and CC1+ double positive cells (OPC differentiation) in injured optic nerves” value [1] turn out when `O=C(Nc1cccc2c(=O)cc(-c3nn[nH]n3)oc12)c1ccc(OCCCCc2ccccc2)cc1` [Pranlukast] was run?
A: increased OPC differentiation but did not reach statistical significance

Q: Which results are given for `O=C1CCC(N2C(=O)c3ccccc3C2=O)C(=O)N1` (stereo not shown) [Thalidomide]?
A: differentiation of OPCs in lineage reporter mice ([6]; PDGFRα-CreER/iRTM lineage reporter mice, 2 to 4 weeks post-injury): OPCs differentiated into mature myelinating oligodendrocytes; BrdU+/CC1+/Olig2+ cells distal to the injury ([6]; administered from 2 weeks to 4 weeks post-injury): robust increase
